From patent US7585875B2, “Substituted pyrazolo[1,5-a]pyridine compounds and their methods of use” (Avigen, Inc., priority 2006, dated 2009)
Structures can show the parent of a compound that is named as a salt.

Tests used:
[1] = biological target: phosphodiesterase (PDE) enzyme derived from bovine brain; assay: Inhibition of PDE (PDELight kit, cAMP substrate); type: biochemical; conditions: PDE from brain extract, cAMP as substrate
Procedure: In a 96-well plate, phosphodiesterase (PDE) enzyme (0.5-1 mU/well) derived from bovine brain (Sigma) was combined with 5 uM cAMP substrate (Sigma). Test compounds (0-200 uM) or vehicle (0.5% DMSO) were added to the enzyme/substrate and incubated for 1 hour. Using a PDELight® kit (Cambrex), the amount of AMP produced in the reaction from the hydrolysis of cAMP was quantified using PDELight AMP Detection Reagent which converts the AMP directly to ATP. The assay uses luciferase, which catalyses the formation of light from the newly formed ATP and luciferin. The luminescence was read on a Victor Light 1420 luminometer. IC50 calculations were plotted using a nonlinear regression curve fit.

[2] = system: mechanical allodynia after chronic constriction injury (CCI) to the sciatic nerve; assay: Mechanical allodynia by response to von Frey fibers, rat chronic constriction injury (CCI) model; type: in vivo, male Sprague-Dawley rats; conditions: 2 hr post dosing
From the text: Chronic Constriction Injury: Heat and cold allodynia responses as well as mechanical allodynia sensations can be evaluated as described below in rats having a chronic constriction injury (CCI). A unilateral mononeuropathy is produced in rats using the chronic constriction injury model described in Bennett et al., Pain (1988) 33:87-107. CCI is produced in anesthetized rats as follows. The lateral aspect of each rat's hind limb is shaved and scrubbed with Nolvasan. Using aseptic techniques, an incision is made on the lateral aspect of the hind limb at the mid-thigh level. The biceps femoris is bluntly dissected to expose the sciatic nerve. On the right hind limb of each rat, four loosely tied ligatures (for example, Chromic gut 4.0; Ethicon, Johnson and Johnson, Somerville, N.J.) are made around the sciatic nerve approximately 1-2 mm apart. On the left side of each rat, an identical dissection is performed except that the sciatic nerve is not ligated (sham). The muscle is closed with a continuous suture pattern with, e.g., 4-0 Vicryl (Johnson and Johnson, Somerville, N.J.) and the overlying skin is closed with wound clips. The rats are ear-tagged for identification purposes and returned to animal housing.
To induce allodynia, male Sprague-Dawley rats underwent chronic constriction injury (CCI) to the sciatic nerve as described by Bennett and Xie, Pain 1988; 33(1):87-107. The plantar surface of the hind paws was stimulated with von Frey filaments (Stoelting) to induce a withdrawal response by blinded personnel. The bending force of fiber required to induce a 50% withdrawal response was calculated following CCI surgery (pre-dosing baseline). N=5-6 allodynic rats received a single intraperitoneal administration of test compound or vehicle. Two hours post-dosing, 50% paw withdrawal threshold was determined again by blinded testers using von Frey filaments. The change in 50% withdrawal threshold relative to pre-dosing baseline is reported in Table 2 for various substituted pyrazolo[1,5-a]pyridine compounds of the invention.

| SMILES | Mechanical Allodynia ΔWT (change from pre-dosing 50% withdrawal threshold) ([2]; 10 mg/kg IP) | other results |
| --- | --- | --- |
| CC(C)C(=NOC(N)=O)c1c(-c2ccc(F)cc2)nn2ccccc12 [Compound 1020, 1-(2-(4-fluorophenyl)pyrazolo[1,5-a]pyridin-3-yl)-2-methylpropan-1-one O-carbamoyl oxime] | – | IC50 [1]: > 200 µM |
| CC(C)c1nn2ccccc2c1-c1cccc(N)c1 [Compound 1100, 3-(2-isopropyl-pyrazolo[1,5-a]pyridin-3-yl)-phenylamine] | 0 grams | – |
| CC(N)C(=O)c1c(N(C)C)nn2ccccc12 (stereo not drawn) [Compound 1075, 2-amino-1-(2-(dimethylamino)pyrazolo[1,5-a]pyridin-3-yl)propan-1-one] | 0.67 grams | – |
| COCC(N)C(=O)c1c(C(C)C)nn2ccccc12 (stereo not drawn) [Compound 1082, 2-amino-1-(2-isopropylpyrazolo[1,5-a]pyridin-3-yl)-3-methoxypropan-1-one] | 0.5 grams | – |
| CCCCC(N)C(=O)c1c(C(C)C)nn2ccccc12 (stereo not drawn) [Compound 1077, 2-amino-1-(2-isopropylpyrazolo[1,5-a]pyridin-3-yl)hexan-1-one] | 0.41 grams | – |
| CC(C)c1nn2ccccc2c1-c1ccc(N2CCOCC2)cc1 [Compound 1102, 2-Isopropyl-3-(4-morpholin-4-yl-phenyl)-pyrazolo[1,5-a]pyridine] | 0 grams | – |
| CC(NCc1ccccc1)C(=O)c1c(C(C)C)nn2ccccc12 (stereo not drawn) [compound 1071, 2-(benzylamino)-1-(2-isopropylpyrazolo[1,5-a]pyridin-3-yl)propan-1-one] | 0.57 grams | – |
| CC(C)c1nn2ccccc2c1-c1c[nH]c(=S)[nH]1 [compound 1085, 4-(2-isopropylpyrazolo[1,5-a]pyridin-3-yl)-1H-imidazole-2(3H)-thione] | 1.93 grams | – |
| CC(C)c1nn2ccccc2c1-c1ccnc(NCCCO)n1 [Compound 1134, 3-[4-(2-Isopropyl-pyrazolo[1,5-a]pyridin-3-yl)-pyrimidin-2-ylamino]-propan-1-ol] | 0 grams | – |
| CC(C)c1nn2ccccc2c1-c1cn[nH]c1 [Compound 1104, 2-isopropyl-3-(1H-pyrazol-4-yl)-pyrazolo[1,5-a]pyridine] | 0.86 grams | – |
| CC(=O)c1c(C(C)C)nn2ccccc12 [Compound 1080, 1-(2-isopropylpyrazolo[1,5-a]pyridin-3-yl)ethanone] | 1.14 grams | – |
| COc1nn2ccccc2c1C(=O)C(C)N (stereo not drawn) [Compound 1057, 2-amino-1-(2-methoxypyrazolo[1,5-a]pyridin-3-yl)propan-1-one] | 0.06 grams | – |
| CC(C)c1nn2ccccc2c1-c1ccnc(N)n1 [Compound 1139, 4-(2-Isopropyl-pyrazolo[1,5-a]pyridin-3-yl)-pyrimidin-2-ylamine] | 0.21 grams | – |
| CC(C)c1nn2ccccc2c1-c1cccnc1 [Compound 1111, 2-Isopropyl-3-pyridin-3-yl-pyrazolo[1,5-a]pyridine] | 0 grams | – |
| C/C(=N/O)C(=O)c1c(C(C)C)nn2ccccc12 [Compound 1083, (Z)-2-(hydroxyimino)-1-(2-isopropylpyrazolo[1,5-a]pyridin-3-yl)propan-1-one] | 0 grams | – |
| CCC(N)C(=O)c1c(C(C)C)nn2ccccc12 (stereo not drawn) [Compound 1060, 2-amino-1-(2-isopropylpyrazolo[1,5-a]pyridin-3-yl)butan-1-one] | 10 mg/kg: 1.87 grams | Mechanical Allodynia ΔWT (change from pre-dosing 50% withdrawal threshold) ([2]; 20 mg/kg IP): 20 mg/kg: 0.74 grams |
| CC(C)c1nn2ccccc2c1C(N)C(C)C (stereo not drawn) [Compound 1051, 1-(2-isopropylpyrazolo[1,5-a]pyridin-3-yl)-2-methylpropan-1-amine hydrochloride] | 0.29 grams | – |

| SMILES | Mechanical Allodynia ΔWT (change from pre-dosing 50% withdrawal threshold) ([2]; 10 mg/kg IP) | other results |
| --- | --- | --- |
| COC(C)C(=O)c1c(C(C)C)nn2ccccc12 (stereo not drawn) [Compound 1069, 1-(2-isopropylpyrazolo[1,5-a]pyridin-3-yl)-2-methoxypropan-1-one] | 0.13 grams | – |
| CC(=O)OC(C)C(=O)c1c(C(C)C)nn2ccccc12 (stereo not drawn) [Compound 1067, 1-(2-isopropylpyrazolo[1,5-a]pyridin-3-yl)-1-oxopropan-2-yl acetate] | 0.46 grams | – |
| CC(C)c1nn2ccccc2c1-c1ccncc1 [compound 1103, 2-Isopropyl-3-pyridin-4-yl-pyrazolo[1,5-a]pyridine] | 1.54 grams | – |
| CC(C)CC(N)C(=O)c1c(C(C)C)nn2ccccc12 (stereo not drawn) [Compound 1061, 2-amino-1-(2-isopropylpyrazolo[1,5-a]pyridin-3-yl)-4-methylpentan-1-one] | 0 grams | – |
| CC(C)c1nn2ccccc2c1-c1cnn(C)c1 [Compound 1112, 2-Isopropyl-3-(1-methyl-1H-pyrazol-4-yl)-pyrazolo[1,5-a]pyridine] | 0 grams | – |
| COc1nn2ccccc2c1C(=O)C(C)C [Compound 1055, 1-(2-methoxypyrazolo[1,5-a]pyridin-3-yl)-2-methylpropan-1-one] | 10 mg/kg: 2.80 grams | Mechanical Allodynia ΔWT (change from pre-dosing 50% withdrawal threshold) ([2]; 20 mg/kg IP): 20 mg/kg: 0 grams |
| CC(N)C(=O)c1c(-c2ccc(F)cc2)nn2ccccc12 (stereo not drawn) [Compound 1052, 2-amino-1-(2-(4-fluorophenyl)pyrazolo[1,5-a]pyridin-3-yl)propan-1-one hydrochloride] | 10 mg/kg: 0.39 grams | Mechanical Allodynia ΔWT (change from pre-dosing 50% withdrawal threshold) ([2]; 20 mg/kg IP): 20 mg/kg: 0.31 grams |
| CC(C)c1nn2ccccc2c1-c1ccnc(NCCCN2CCN(C)CC2)n1 [Compound 1135, [4-(2-Isopropyl-pyrazolo[1,5-a]pyridin-3-yl)-pyrimidin-2-yl]-[3-(4-methyl-piperazin-1-yl)-propyl]-amine] | 0 grams | – |
| CC(C)Nc1nccc(-c2c(C(C)C)nn3ccccc23)n1 [compound 1137, isopropyl-[4-(2-isopropylpyrazolo[1,5-a]pyridin-3-yl)-pyrimidin-2-yl]-amine] | 3.26 grams | – |
| CCC(=O)c1c(-c2ccc(F)cc2)nn2ccccc12 [Compound 1070, 1-(2-(4-fluorophenyl)pyrazolo[1,5-a]pyridin-3-yl)propan-1-one] | 0 grams | – |
| CC(C)C(=O)c1c(N(C)C)nn2ccccc12 [Compound 1072, 1-(2-(dimethylamino)pyrazolo[1,5-a]pyridin-3-yl)-2-methylpropan-1-one] | 1.48 grams | Observation noted beside the allodynia value ([2]; 10 mg/kg IP): lethargy |
| CC(=O)SC(C)C(=O)c1c(C(C)C)nn2ccccc12 (stereo not drawn) [Compound 1081, S-1-(2-isopropylpyrazolo[1,5-a]pyridin-3-yl)-1-oxopropan-2-yl ethanethioate] | 0.07 grams | – |
| CC(O)C(=O)c1c(C(C)C)nn2ccccc12 (stereo not drawn) [Compound 1068, 2-hydroxy-1-(2-isopropylpyrazolo[1,5-a]pyridin-3-yl)propan-1-one] | 0.7 grams | – |
| CC(C)c1nn2ccccc2c1/C=N/NC(N)=O [Compound 1074, (E)-2-((2-isopropylpyrazolo[1,5-a]pyridin-3-yl)methylene)hydrazinecarboxamide] | 3.64 grams | Observation noted beside the allodynia value ([2]; 10 mg/kg IP): lethargy |
| CC(C)c1nn2ccccc2c1-c1cc[nH]n1 [Compound 1141, 2-isopropyl-3-(1H-pyrazol-3-yl)-pyrazolo[1,5-a]pyridine] | 1.04 grams | – |
| CC(C)c1nn2ccccc2c1-c1ccc(N)cc1 [Compound 1101, 4-(2-Isopropyl-pyrazolo[1,5-a]pyridin-3-yl)-phenylamine] | 0.02 grams | – |
| CC(C)c1nn2ccccc2c1C=O [Compound 1073, 2-isopropylpyrazolo[1,5-a]pyridine-3-carbaldehyde] | 0 grams | – |
